According to PMC3262391 (Clinical pharmacology : advances and applications, 2011):
Where two headings read alike, the source gives them in different places.

Tests used:
[1] = Simvastatin study: adverse events; format: in vivo, healthy subjects
[2] = Simvastatin study: two-way pharmacokinetic interaction, plasma pharmacokinetics; settings: for decrease of Cmax by saxagliptin / increase of AUCτ by saxagliptin: saxagliptin 10 mg + simvastatin 40 mg relative to simvastatin alone
[3] = Ketoconazole study: two-way pharmacokinetic interaction, plasma pharmacokinetics; format: in vivo, healthy subjects; settings: for t½: mean (SD)
[4] = Ketoconazole study: adverse events; format: in vivo, healthy subjects
CYP2E1 = settings: in vitro studies; cited from earlier work
CYP3A4 [5] = settings: in vitro studies; cited from earlier work
CYP1A2 [6] = settings: in vitro studies; cited from earlier work
CYP3A4 [7] = settings: in vitro studies; cited from earlier work; remark: listed apart in the source
CYP2C19 = settings: in vitro studies; cited from earlier work
CYP2C9 [8] = settings: in vitro studies; cited from earlier work
CYP2C9 [9] = settings: in vitro studies; cited from earlier work; remark: listed apart in the source
[10] = format: in vivo, healthy subjects; settings: for t½: mean (SD)
CYP2A6 = settings: in vitro studies; cited from earlier work
[11] = excreted in urine; cited from earlier work
CYP2D6 = settings: in vitro studies; cited from earlier work
CYP2B6 [12] = settings: in vitro studies; cited from earlier work
DPP-4 = settings: cited from earlier work
CYP1A2 [13] = settings: in vitro studies; cited from earlier work; remark: listed apart in the source
CYP2B6 [14] = settings: in vitro studies; cited from earlier work; remark: listed apart in the source
[15] = Diltiazem extended-release study: adverse events; format: in vivo, healthy subjects; settings: for first-degree atrioventricular block, subjects: by treatment: diltiazem extended-release 360 mg alone, saxagliptin 10 mg + diltiazem extended-release 360 mg, saxagliptin 10 mg alone
P-glycoprotein = settings: in vitro data; no reference given; cited from earlier work
[16] = saxagliptin 100 mg + ketoconazole versus ketoconazole alone
[17] = saxagliptin 10 mg + simvastatin 40 mg relative to saxagliptin alone
[18] = compared with saxagliptin 10 mg alone
[19] = saxagliptin 10 mg + diltiazem extended-release 360 mg (day 10), geometric mean (CV%), n = 12
[20] = saxagliptin 10 mg administered alone (day 1), geometric mean (CV%), n = 12
[21] = compared with saxagliptin alone
[22] = saxagliptin 100 mg + ketoconazole 200 mg every 12 hours (day 9), geometric mean (CV%), n = 15
[23] = saxagliptin 100 mg administered alone (day 1), geometric mean (CV%), n = 15

CCC(C)(C)C(=O)O[C@H]1C[C@@H](C)C=C2C=C[C@H](C)[C@H](CC[C@@H]3C[C@@H](O)CC(=O)O3)[C@H]21 [Simvastatin, simvastatin, reference compound]
subjects discontinued due to mild upper respiratory tract infection ([1]; simvastatin 40-mg group, diagnosed on day 5, deemed possibly related to study drug): One subject | decrease of Cmax by saxagliptin [2]: 12% | increase of AUCτ by saxagliptin [2]: 4%

CCC(C)(C)C(=O)O[C@H]1C[C@@H](C)C=C2C=C[C@H](C)[C@H](CC[C@@H](O)C[C@@H](O)CC(=O)O)[C@H]21 [Simvastatin acid, simvastatin acid]
AUC ([2]; human, in vivo, 40 mg): 17.9 ng·h/mL | decrease of Cmax by saxagliptin [2]: unchanged | increase of AUCτ by saxagliptin [2]: 16% | Tmax ([2]; simvastatin 40 mg administered alone (day 8), median (minimum, maximum)): 4.00 (2.00, 8.00) h

CC(=O)N1CCN(c2ccc(OCC3COC(Cn4ccnc4)(c4ccc(Cl)cc4Cl)O3)cc2)CC1 (stereo not drawn) [Ketoconazole, ketoconazole]
AUC ([3]; human, plasma, 200 mg): 42300 ng·h/mL | Cmax ([3]; human, plasma, 200 mg): 7040 ng/mL | Tmax ([3]; human, plasma, 200 mg): 2 h | decrease of AUCτ by saxagliptin [3, 16]: 13% | decrease of Cmax by saxagliptin [3, 16]: 16% | headache, subjects ([4]; ketoconazole alone treatment group, 10/16): 62.5% | subjects discontinued due to adverse event of increased transaminases ([4]; mild, beginning on day 8, lasting 11 days, following ketoconazole alone): One subject

N#C[C@@H]1C[C@@H]2C[C@@H]2N1C(=O)[C@@H](N)C12CC3CC(O)(CC(O)(C3)C1)C2 [5-Hydroxy saxagliptin, 5-hydroxy saxagliptin]
inhibition of CYP2E1 (CYP2E1): neither saxagliptin nor 5-hydroxy saxagliptin inhibits | inhibition of CYP3A4 (CYP3A4 [5]): neither saxagliptin nor 5-hydroxy saxagliptin inhibits | induction of CYP1A2 (CYP1A2 [6]): do not induce | Cmax ([2]; plasma, SAXA + SIMVA, saxagliptin 10 mg + simvastatin 40 mg (day 12), geometric mean (CV%), n = 23): 103 (29) ng/mL | Cmax ([2]; plasma, SAXA, saxagliptin 10 mg administered alone (day 4), geometric mean (CV%), n = 23): 96 (33) ng/mL | AUCτ ([2]; plasma, saxagliptin 10 mg + simvastatin 40 mg (day 12), geometric mean (CV%), n = 23): 538 (24) ng · h/mL | AUCτ ([2]; plasma, saxagliptin 10 mg administered alone (day 4), geometric mean (CV%), n = 23): 529 (26) ng · h/mL | Tmax ([2]; saxagliptin 10 mg + simvastatin 40 mg (day 12), median (minimum, maximum)): 1.50 (1.00, 2.00) h | increase of AUCτ by simvastatin [2, 17]: 2% | increase of Cmax by simvastatin [2, 17]: 8% | Tmax ([2]; saxagliptin 10 mg administered alone (day 4), median (minimum, maximum)): 1.50 (1.00, 3.00) h | induction of CYP3A4 (CYP3A4 [7]): do not induce | inhibition of CYP2C19 (CYP2C19): neither saxagliptin nor 5-hydroxy saxagliptin inhibits | induction of CYP2C9 (CYP2C9 [8]): do not induce | inhibition of CYP2C9 (CYP2C9 [9]): neither saxagliptin nor 5-hydroxy saxagliptin inhibits | decrease of AUC0-t by diltiazem extended-release [10, 18]: 36% | decrease of AUC∞ by diltiazem extended-release [10, 18]: 34% | decrease of Cmax by diltiazem extended-release [10, 18]: 43% | Cmax ([10]; plasma, SAXA + DILT XR, saxagliptin 10 mg + diltiazem extended-release 360 mg (day 10), geometric mean (CV%), n = 12): 63 (26) ng/mL | Cmax ([10]; plasma, SAXA, saxagliptin 10 mg administered alone (day 1), geometric mean (CV%), n = 12): 111 (20) ng/mL | AUC0-t [10, 19]: 338 (24) ng · h/mL | AUC∞ [10, 19]: 353 (23) ng · h/mL | t½ ([10]; saxagliptin 10 mg + diltiazem extended-release 360 mg (day 10)): 3.30 (0.53) h | Tmax ([10]; saxagliptin 10 mg + diltiazem extended-release 360 mg (day 10), median (minimum, maximum)): 1.50 (1.00, 2.50) h | AUC0-t [10, 20]: 526 (25) ng · h/mL | AUC∞ [10, 20]: 538 (25) ng · h/mL | t½ ([10]; saxagliptin 10 mg administered alone (day 1)): 3.04 (0.38) h | Tmax ([10]; saxagliptin 10 mg administered alone (day 1), median (minimum, maximum)): 1.50 (1.00, 2.00) h | inhibition of CYP2A6 (CYP2A6): neither saxagliptin nor 5-hydroxy saxagliptin inhibits | decrease of AUC0-t by ketoconazole [3, 21]: 91% | decrease of AUC∞ by ketoconazole [3, 21]: 88% | decrease of Cmax by ketoconazole [3, 21]: 95% | Cmax ([3]; plasma, SAXA + KETO, saxagliptin 100 mg + ketoconazole 200 mg every 12 hours (day 9), geometric mean (CV%), n = 15): 53 (49) ng/mL | Cmax ([3]; plasma, SAXA, saxagliptin 100 mg administered alone (day 1), geometric mean (CV%), n = 15): 999 (24) ng/mL | AUC0-t [3, 22]: 473 (59) ng · h/mL | AUC∞ [3, 22]: 627 (43) ng · h/mL | t½ ([3]; saxagliptin 100 mg + ketoconazole 200 mg every 12 hours (day 9)): 6.33 (2.49) h | Tmax ([3]; saxagliptin 100 mg + ketoconazole 200 mg every 12 hours (day 9), median (minimum, maximum)): 2.00 (0.75, 4.00) h | AUC0-t [3, 23]: 5294 (19) ng · h/mL | AUC∞ [3, 23]: 5381 (19) ng · h/mL | t½ ([3]; saxagliptin 100 mg administered alone (day 1)): 3.68 (0.53) h | Tmax ([3]; saxagliptin 100 mg administered alone (day 1), median (minimum, maximum)): 1.50 (1.00, 2.00) h | renal clearance [11]: ~120 mL/min | inhibition of CYP2D6 (CYP2D6): neither saxagliptin nor 5-hydroxy saxagliptin inhibits | inhibition of CYP2B6 (CYP2B6 [12]): neither saxagliptin nor 5-hydroxy saxagliptin inhibits | DPP-4 inhibitive potency relative to the parent saxagliptin (DPP-4): one-half | inhibition of CYP1A2 (CYP1A2 [13]): neither saxagliptin nor 5-hydroxy saxagliptin inhibits | induction of CYP2B6 (CYP2B6 [14]): do not induce

COc1ccc([C@@H]2Sc3ccccc3N(CCN(C)C)C(=O)[C@@H]2OC(C)=O)cc1 [Diltiazem, diltiazem, reference compound]
first-degree atrioventricular block, subjects [15]: 42.9% | subjects with first-degree atrioventricular block who discontinued the trial ([15]; diltiazem extended-release 360 mg alone, on day 5): two of these subjects | adverse events reported (of thirteen in the study) ([15]; diltiazem extended-release 360 mg monotherapy): 12 | AUC ([10]; human, plasma, oral, 360 mg): 3870 ng·h/mL | Cmax ([10]; human, plasma, oral, 360 mg): 262 ng/mL | Tmax ([10]; human, plasma, oral, 360 mg): 13 h

N#C[C@@H]1C[C@@H]2C[C@@H]2N1C(=O)[C@@H](N)C12CC3CC(CC(O)(C3)C1)C2 [Saxagliptin, saxagliptin, reference compound]
serious adverse events or deaths ([1]; after coadministration of saxagliptin and simvastatin): no serious adverse events or deaths | inhibition of CYP3A4 (CYP3A4 [5]): neither saxagliptin nor 5-hydroxy saxagliptin inhibits | AUC ([2]; human, in vivo, 10 mg): 153 ng·h/mL | Cmax ([2]; human, in vivo, 10 mg): 44 ng/mL | Tmax ([2]; human, in vivo, 10 mg): 1 h | increase of AUCτ by simvastatin [2, 17]: 12% | induction of CYP3A4 (CYP3A4 [7]): do not induce | serious adverse events or deaths ([15]; after coadministration of saxagliptin and diltiazem extended-release): no serious adverse events or deaths | first-degree atrioventricular block, subjects [15]: in no subjects | inhibition of CYP2C19 (CYP2C19): neither saxagliptin nor 5-hydroxy saxagliptin inhibits | induction of CYP2C9 (CYP2C9 [8]): do not induce | inhibition of CYP2C9 (CYP2C9 [9]): neither saxagliptin nor 5-hydroxy saxagliptin inhibits | increase of AUC0-t by diltiazem extended-release [10, 18]: 113% | increase of AUC∞ by diltiazem extended-release [10, 18]: 109% | increase of Cmax by diltiazem extended-release [10, 18]: 63% | AUC0-t ([10]; human, plasma, oral, 10 mg): 152 ng·h/mL | AUC(0-inf) ([10]; human, plasma, oral, 10 mg): 158 ng·h/mL | Cmax ([10]; human, plasma, oral, 10 mg): 53 ng/mL | Tmax ([10]; human, plasma, oral, 10 mg): 0.5 h | half-life ([10]; human, plasma, oral, 10 mg): 2.38 h | increase of mean t½ by diltiazem extended-release ([10]; versus saxagliptin alone): 0.92 h | increase of AUC0-t by ketoconazole [3, 21]: 148% | increase of AUC∞ by ketoconazole [3, 21]: 145% | increase of Cmax by ketoconazole [3, 21]: 62% | AUC0-t ([3]; human, plasma, 100 mg): 1920 ng·h/mL | AUC(0-inf) ([3]; human, plasma, 100 mg): 1970 ng·h/mL | Cmax ([3]; human, plasma, 100 mg): 546 ng/mL | Tmax ([3]; human, plasma, 100 mg): 1 h | half-life ([3]; human, plasma, 100 mg): 2.37 h | increase of mean t½ by ketoconazole ([3]; versus saxagliptin alone): 1.1 h | renal clearance [11]: approximately 230 mL/min | inhibition of CYP2D6 (CYP2D6): neither saxagliptin nor 5-hydroxy saxagliptin inhibits | substrate for the efflux transporter P-glycoprotein (P-glycoprotein): weak substrate | serious adverse events or deaths ([4]; after coadministration of saxagliptin and ketoconazole): no serious adverse events or deaths
